Measurements taken from ChEMBL document CHEMBL4052645, “Discovery of potent and efficacious pyrrolopyridazines as dual JAK1/3 inhibitors” (Bioorg Med Chem Lett, 2017).
pIC50: −log10 of the molar value.

Legend:
[1] = molecular target: Non-receptor tyrosine-protein kinase TYK2 (Homo sapiens, UniProt P29597); test: Inhibition of His-tagged TYK2 (unknown origin) after 3 hrs by Caliper assay
[2] = molecular target: Tyrosine-protein kinase JAK2 (Homo sapiens, UniProt O60674); test: Inhibition of GST-tagged JAK2 (unknown origin) after 3 hrs by Caliper assay
[3] = molecular target: Tyrosine-protein kinase JAK1 (Homo sapiens, UniProt P23458); test: Inhibition of GST-tagged JAK1 (unknown origin) after 3 hrs by Caliper assay
[4] = molecular target: T1, Tyrosine-protein kinase JAK3 (Homo sapiens, UniProt P52333); test: Inhibition of JAK3 (unknown origin) using CSKtide as substrate after 30 mins in presence of [gamma33P]ATP by liquid scintillation counting method
T1 sequence (P52333 whole entry): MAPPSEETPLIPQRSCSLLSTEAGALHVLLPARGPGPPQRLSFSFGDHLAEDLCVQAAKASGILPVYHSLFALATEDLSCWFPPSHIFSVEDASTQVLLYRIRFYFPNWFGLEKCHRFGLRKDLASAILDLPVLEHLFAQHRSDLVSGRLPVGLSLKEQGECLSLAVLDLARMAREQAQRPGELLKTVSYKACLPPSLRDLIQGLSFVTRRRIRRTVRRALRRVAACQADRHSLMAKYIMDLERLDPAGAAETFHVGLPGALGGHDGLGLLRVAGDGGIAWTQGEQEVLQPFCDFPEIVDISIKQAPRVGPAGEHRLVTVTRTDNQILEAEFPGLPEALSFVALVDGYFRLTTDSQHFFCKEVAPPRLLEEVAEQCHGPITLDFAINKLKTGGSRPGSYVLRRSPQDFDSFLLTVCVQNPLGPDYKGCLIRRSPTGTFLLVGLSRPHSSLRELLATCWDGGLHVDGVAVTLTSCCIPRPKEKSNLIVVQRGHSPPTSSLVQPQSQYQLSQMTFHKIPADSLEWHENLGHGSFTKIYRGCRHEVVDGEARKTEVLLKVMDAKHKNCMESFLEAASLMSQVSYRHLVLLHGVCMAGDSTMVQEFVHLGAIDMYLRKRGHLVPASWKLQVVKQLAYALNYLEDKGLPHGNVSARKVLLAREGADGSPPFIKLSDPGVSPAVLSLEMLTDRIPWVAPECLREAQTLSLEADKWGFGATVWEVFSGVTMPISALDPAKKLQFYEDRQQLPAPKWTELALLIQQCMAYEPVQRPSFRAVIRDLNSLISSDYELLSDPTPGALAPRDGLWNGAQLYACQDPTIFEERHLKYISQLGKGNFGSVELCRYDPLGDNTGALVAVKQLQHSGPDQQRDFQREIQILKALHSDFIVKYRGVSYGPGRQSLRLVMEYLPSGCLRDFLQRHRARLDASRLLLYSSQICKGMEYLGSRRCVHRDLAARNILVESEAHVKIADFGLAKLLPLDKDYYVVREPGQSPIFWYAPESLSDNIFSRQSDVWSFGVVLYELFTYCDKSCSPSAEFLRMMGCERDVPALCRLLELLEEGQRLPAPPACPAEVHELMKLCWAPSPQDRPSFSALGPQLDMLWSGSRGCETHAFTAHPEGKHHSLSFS

JAK3/JAK1 = JAK3/JAK1 (Homo sapiens, UniProt P23458+P52333); test: Inhibition of JAK1/JAK3 in human whole blood assessed as reduction in IL-2 induced IFN-gamma production after 18 hrs by ELISA; assay type: protein-complex assay
[5] = Selectivity ratio of IC50 for JAK2 dependent EPO-induced STAT5A phosphorylation in human TF1 cells to IC50 for JAK1/JAK3 dependent IL2-induced STAT3 phosphorylation in human PBMC derived T-cells
[6] = molecular target: Voltage-gated inwardly rectifying potassium channel KCNH2 (Homo sapiens, UniProt Q12809); test: Inhibition of human ERG by flux-based assay
[7] = Protein binding in mouse plasma at 10 mg/kg, po; assay type: ADME, organism-based; conditions: read-out: PPB (converted)
[8] = Metabolic stability in mouse liver microsomes assessed as compound remaining after 10 mins; assay type: ADME, microsome; conditions: read-out: Stability
[9] = Cmax in mouse at 10 mg/kg, po; assay type: ADME, organism-based; design: dose 10 mg/kg, route oral; conditions: in vivo
[10] = Permeability from apical side to basolateral side in human Caco2 cells; assay type: ADME, cell-based; conditions: Caco-2, read-out: permeability

Sequence of JAK3/JAK1 (P23458 whole entry, one chain of several): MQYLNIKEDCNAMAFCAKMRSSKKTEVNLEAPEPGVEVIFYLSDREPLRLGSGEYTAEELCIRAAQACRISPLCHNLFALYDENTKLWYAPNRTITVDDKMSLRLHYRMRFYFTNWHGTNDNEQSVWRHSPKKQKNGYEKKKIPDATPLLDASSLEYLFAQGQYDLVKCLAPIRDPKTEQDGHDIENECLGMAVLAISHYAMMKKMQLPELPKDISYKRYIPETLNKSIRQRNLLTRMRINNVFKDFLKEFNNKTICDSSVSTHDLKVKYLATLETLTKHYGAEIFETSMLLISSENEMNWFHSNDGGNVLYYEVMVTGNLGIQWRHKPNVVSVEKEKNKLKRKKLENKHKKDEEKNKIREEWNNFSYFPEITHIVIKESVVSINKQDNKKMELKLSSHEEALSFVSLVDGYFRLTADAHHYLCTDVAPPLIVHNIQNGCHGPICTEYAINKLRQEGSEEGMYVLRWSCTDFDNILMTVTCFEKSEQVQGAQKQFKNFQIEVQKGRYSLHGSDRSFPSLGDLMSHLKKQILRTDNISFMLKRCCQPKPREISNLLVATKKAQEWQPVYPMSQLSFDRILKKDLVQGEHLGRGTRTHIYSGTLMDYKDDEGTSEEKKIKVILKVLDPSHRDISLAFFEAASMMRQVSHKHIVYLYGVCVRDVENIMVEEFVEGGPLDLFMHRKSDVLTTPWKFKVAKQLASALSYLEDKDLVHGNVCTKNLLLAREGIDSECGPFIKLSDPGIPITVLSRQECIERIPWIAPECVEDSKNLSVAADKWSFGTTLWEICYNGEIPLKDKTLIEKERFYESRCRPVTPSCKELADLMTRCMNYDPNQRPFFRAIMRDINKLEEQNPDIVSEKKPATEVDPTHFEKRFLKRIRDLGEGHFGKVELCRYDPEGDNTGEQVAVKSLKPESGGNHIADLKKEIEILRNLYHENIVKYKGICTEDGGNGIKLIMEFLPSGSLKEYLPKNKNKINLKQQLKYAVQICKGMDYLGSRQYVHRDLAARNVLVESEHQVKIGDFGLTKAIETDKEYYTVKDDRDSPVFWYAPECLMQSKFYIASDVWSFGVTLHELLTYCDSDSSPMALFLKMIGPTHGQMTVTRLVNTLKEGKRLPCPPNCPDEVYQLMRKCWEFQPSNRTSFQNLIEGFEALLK
Sequence of Non-receptor tyrosine-protein kinase TYK2 (P29597 whole entry): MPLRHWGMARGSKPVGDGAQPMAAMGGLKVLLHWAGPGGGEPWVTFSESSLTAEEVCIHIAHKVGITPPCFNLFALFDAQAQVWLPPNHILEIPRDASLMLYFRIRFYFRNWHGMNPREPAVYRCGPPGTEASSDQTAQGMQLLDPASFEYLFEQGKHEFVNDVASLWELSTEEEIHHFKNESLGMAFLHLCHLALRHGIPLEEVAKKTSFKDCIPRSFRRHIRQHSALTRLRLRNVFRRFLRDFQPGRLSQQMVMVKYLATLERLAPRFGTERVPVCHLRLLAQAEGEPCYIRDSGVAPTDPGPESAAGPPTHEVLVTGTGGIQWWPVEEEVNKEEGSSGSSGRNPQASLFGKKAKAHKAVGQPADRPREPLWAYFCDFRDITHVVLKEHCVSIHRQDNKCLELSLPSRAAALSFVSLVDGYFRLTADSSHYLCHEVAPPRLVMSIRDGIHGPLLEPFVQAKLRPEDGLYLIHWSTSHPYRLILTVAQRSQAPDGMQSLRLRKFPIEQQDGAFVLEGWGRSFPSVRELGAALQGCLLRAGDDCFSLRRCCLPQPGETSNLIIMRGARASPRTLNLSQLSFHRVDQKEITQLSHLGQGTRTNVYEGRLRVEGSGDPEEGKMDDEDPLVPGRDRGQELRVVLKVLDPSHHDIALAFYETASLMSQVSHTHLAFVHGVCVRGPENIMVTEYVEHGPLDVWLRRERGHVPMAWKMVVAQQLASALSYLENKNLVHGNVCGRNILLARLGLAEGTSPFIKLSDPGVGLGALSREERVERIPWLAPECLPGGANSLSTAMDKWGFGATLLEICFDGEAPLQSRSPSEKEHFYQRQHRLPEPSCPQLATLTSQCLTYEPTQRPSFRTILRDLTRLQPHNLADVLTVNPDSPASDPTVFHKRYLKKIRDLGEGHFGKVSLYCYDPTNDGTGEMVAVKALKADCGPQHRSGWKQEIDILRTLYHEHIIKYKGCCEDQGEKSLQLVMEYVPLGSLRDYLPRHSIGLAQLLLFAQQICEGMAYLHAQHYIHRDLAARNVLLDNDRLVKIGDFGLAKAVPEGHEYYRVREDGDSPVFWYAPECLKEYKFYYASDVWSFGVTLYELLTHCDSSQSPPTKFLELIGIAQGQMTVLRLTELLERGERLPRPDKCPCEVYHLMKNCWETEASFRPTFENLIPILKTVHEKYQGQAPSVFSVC
Sequence of Voltage-gated inwardly rectifying potassium channel KCNH2 (Q12809 whole entry): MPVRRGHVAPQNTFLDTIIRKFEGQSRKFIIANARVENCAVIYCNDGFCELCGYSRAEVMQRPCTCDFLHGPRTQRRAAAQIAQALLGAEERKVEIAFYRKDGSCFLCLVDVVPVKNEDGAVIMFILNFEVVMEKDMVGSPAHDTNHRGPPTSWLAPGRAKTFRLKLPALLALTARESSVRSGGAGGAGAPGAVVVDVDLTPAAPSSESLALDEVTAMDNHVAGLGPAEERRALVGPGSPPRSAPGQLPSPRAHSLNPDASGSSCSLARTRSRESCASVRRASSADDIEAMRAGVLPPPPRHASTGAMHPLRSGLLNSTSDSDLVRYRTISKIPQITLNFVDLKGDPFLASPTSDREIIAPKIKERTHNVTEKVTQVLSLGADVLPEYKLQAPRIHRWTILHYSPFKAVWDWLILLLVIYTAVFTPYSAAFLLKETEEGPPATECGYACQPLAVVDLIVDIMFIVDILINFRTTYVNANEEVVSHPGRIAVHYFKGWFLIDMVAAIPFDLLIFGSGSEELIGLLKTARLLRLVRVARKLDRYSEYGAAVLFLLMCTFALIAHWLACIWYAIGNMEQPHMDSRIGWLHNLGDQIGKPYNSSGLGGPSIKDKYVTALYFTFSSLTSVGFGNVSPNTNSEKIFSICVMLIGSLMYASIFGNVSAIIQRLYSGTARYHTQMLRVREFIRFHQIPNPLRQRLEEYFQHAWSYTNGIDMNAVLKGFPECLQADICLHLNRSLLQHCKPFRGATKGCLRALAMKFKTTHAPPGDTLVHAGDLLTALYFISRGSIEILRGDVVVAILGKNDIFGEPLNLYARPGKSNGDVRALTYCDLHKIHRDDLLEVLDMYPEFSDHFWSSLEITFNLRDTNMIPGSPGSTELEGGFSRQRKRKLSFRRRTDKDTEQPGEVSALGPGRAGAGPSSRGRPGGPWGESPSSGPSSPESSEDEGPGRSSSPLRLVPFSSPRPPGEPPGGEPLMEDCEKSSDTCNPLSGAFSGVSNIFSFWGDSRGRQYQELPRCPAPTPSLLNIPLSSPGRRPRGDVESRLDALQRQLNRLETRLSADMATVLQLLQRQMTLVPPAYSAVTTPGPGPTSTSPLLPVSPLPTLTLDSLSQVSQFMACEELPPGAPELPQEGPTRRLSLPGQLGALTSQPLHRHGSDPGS
Sequence of Tyrosine-protein kinase JAK2 (O60674 whole entry): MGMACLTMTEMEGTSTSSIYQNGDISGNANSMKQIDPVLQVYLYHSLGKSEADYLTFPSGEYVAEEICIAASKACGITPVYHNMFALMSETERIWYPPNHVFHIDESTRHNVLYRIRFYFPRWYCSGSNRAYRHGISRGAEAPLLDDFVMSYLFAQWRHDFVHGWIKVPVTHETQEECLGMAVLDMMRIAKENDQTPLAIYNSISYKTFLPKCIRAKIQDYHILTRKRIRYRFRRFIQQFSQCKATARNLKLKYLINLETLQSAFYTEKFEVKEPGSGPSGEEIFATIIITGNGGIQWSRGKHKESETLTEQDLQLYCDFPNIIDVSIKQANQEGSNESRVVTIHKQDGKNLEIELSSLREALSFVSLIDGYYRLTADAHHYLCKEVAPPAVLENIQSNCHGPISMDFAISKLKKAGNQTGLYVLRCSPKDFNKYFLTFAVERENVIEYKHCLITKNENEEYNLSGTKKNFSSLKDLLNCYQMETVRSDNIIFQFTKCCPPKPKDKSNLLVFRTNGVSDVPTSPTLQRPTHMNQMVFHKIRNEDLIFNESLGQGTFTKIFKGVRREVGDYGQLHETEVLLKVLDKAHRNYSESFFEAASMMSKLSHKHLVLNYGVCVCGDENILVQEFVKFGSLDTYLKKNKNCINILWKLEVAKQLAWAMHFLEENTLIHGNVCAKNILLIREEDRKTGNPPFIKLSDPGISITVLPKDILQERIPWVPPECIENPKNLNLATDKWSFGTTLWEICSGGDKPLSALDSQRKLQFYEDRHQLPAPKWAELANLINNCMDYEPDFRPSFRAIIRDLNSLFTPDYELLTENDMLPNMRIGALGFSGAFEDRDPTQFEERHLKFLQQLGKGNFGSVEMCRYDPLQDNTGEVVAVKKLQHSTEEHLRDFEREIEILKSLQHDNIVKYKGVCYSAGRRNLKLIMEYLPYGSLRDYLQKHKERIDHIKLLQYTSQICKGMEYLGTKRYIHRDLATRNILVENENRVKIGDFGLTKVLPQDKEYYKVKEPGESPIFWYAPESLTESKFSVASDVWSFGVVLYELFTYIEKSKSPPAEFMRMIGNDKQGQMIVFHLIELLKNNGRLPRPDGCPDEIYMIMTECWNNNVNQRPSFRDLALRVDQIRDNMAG
Sequence of Tyrosine-protein kinase JAK1 (P23458 whole entry): as the sequence (P23458 whole entry, one chain of several) above

SMILES	pIC50 [1]	pIC50 [2]	pIC50 [3]	pIC50 [4]	pIC50 (JAK3/JAK1)	Ratio IC50 [5]	pIC50 [6]	fraction unbound [7]	remaining at 10 min [8]	Cmax [9]	Papp A→B [10]
CC1(C)[C@H](Nc2c(C(N)=O)cnn3cc(-c4ccccc4F)cc23)CC[C@]1(C)N	7.82	7.77	8.92	8.82	6.20	–	–	–	–	–	–
CC1(C)[C@H](Nc2c(C(N)=O)cnn3cc(-c4ccccc4C#N)cc23)CC[C@]1(C)N	7.47	7.60	8.80	8.72	6.30	240	–	–	–	–	–
COc1ccc(-c2cc3c(N[C@@H]4CC[C@](C)(N)C4(C)C)c(C(N)=O)cnn3c2)cc1	8.04	7.82	9.22	8.82	6.77	46	4.86	–	–	–	–
CC(C)Oc1ccc(-c2cc3c(N[C@@H]4CC[C@](C)(N)C4(C)C)c(C(N)=O)cnn3c2)cn1	7.52	7.70	8.92	9.30	6.40	2	5.28	–	–	–	–
CC1(C)[C@H](Nc2c(C(N)=O)cnn3cc(-c4ccnc(F)c4)cc23)CC[C@]1(C)N	7.23	7.42	8.48	8.80	6.57	–	–	–	–	–	–
CC1(C)[C@H](Nc2c(C(N)=O)cnn3cc(-c4cncc(F)c4)cc23)CC[C@]1(C)N	7.22	7.36	8.18	8.72	6.66	–	–	–	–	–	–
CC1(C)[C@H](Nc2c(C(N)=O)cnn3cc(-c4ccncc4)cc23)CC[C@]1(C)N	7.36	7.10	8.31	8.17	7.25	–	–	0.31	75%	< 250 nM	< 1.5 ×10⁻⁶ cm/s
CC1(C)[C@H](Nc2c(C(N)=O)cnn3cc(-c4cccc(F)c4)cc23)CC[C@]1(C)N	7.66	7.66	8.92	8.80	< 6.00	–	5.12	–	–	–	–
CC1(C)[C@H](Nc2c(C(N)=O)cnn3cc(-c4ccccc4Cl)cc23)CC[C@]1(C)N	7.33	7.57	9.10	8.89	< 6.00	–	–	–	–	–	–
CCOc1ccc(-c2cc3c(N[C@@H]4CC[C@](C)(N)C4(C)C)c(C(N)=O)cnn3c2)cn1	7.42	7.52	8.40	8.96	6.10	120	4.77	–	–	–	–
CC1(C)[C@H](Nc2c(C(N)=O)cnn3cc(-c4ccc(C#N)cc4)cc23)CC[C@]1(C)N	8.07	8.14	9.05	9.00	7.18	–	–	–	–	–	–
COc1ccccc1-c1cc2c(N[C@@H]3CC[C@](C)(N)C3(C)C)c(C(N)=O)cnn2c1	7.68	7.70	9.30	8.89	6.17	562	5.12	–	–	–	–
COc1cc(-c2cc3c(N[C@@H]4CC[C@](C)(N)C4(C)C)c(C(N)=O)cnn3c2)ccn1	7.44	7.44	8.64	8.55	6.46	86	–	–	–	–	–
Cc1cccc(-c2cc3c(N[C@@H]4CC[C@](C)(N)C4(C)C)c(C(N)=O)cnn3c2)c1	8.10	7.96	9.05	9.05	6.15	50	5.11	–	–	–	–
Cc1ccc(-c2cc3c(N[C@@H]4CC[C@](C)(N)C4(C)C)c(C(N)=O)cnn3c2)cn1	7.54	7.66	8.70	9.05	7.08	80	5.10	–	–	–	–
CC1(C)[C@H](Nc2c(C(N)=O)cnn3cc(-c4cccc(Cl)c4)cc23)CC[C@]1(C)N	7.70	7.77	8.89	9.00	6.11	–	–	–	–	–	–
CC1(C)[C@H](Nc2c(C(N)=O)cnn3cc(-c4cccc(C#N)c4)cc23)CC[C@]1(C)N	7.26	7.33	8.14	8.42	< 6.00	–	–	–	–	–	–
Cc1cc(-c2cc3c(N[C@@H]4CC[C@](C)(N)C4(C)C)c(C(N)=O)cnn3c2)ccn1	8.24	8.46	9.22	9.22	7.26	8	4.52	–	–	–	–
Cc1ccccc1-c1cc2c(N[C@@H]3CC[C@](C)(N)C3(C)C)c(C(N)=O)cnn2c1	7.29	7.31	9.15	8.74	6.31	–	–	–	–	–	–
Cc1cnccc1-c1cc2c(N[C@@H]3CC[C@](C)(N)C3(C)C)c(C(N)=O)cnn2c1	7.54	7.72	8.62	8.40	7.12	250	< 4.10	–	–	–	–
CC1(C)[C@H](Nc2c(C(N)=O)cnn3cc(-c4ccc(C#N)nc4)cc23)CC[C@]1(C)N	7.33	7.54	8.18	9.00	6.37	–	–	–	–	–	–
COc1cccc(-c2cc3c(N[C@@H]4CC[C@](C)(N)C4(C)C)c(C(N)=O)cnn3c2)c1	7.92	7.82	9.00	9.40	6.70	305	5.14	–	–	–	–
CC1(C)[C@H](Nc2c(C(N)=O)cnn3cc(-c4ccc(F)cc4)cc23)CC[C@]1(C)N	7.85	7.57	8.92	8.68	6.38	230	4.99	–	–	–	–
CC1(C)[C@H](Nc2c(C(N)=O)cnn3cc(-c4cccnc4)cc23)CC[C@]1(C)N	7.47	7.96	–	9.22	6.96	–	–	–	–	–	–
Cc1ccc(-c2cc3c(N[C@@H]4CC[C@](C)(N)C4(C)C)c(C(N)=O)cnn3c2)cc1	8.07	7.85	9.10	9.15	< 5.70	–	–	–	–	–	–
CC1(C)[C@H](Nc2c(C(N)=O)cnn3cc(-c4cncnc4)cc23)CC[C@]1(C)N	6.72	6.80	7.55	7.96	6.62	180	5.07	–	–	–	–
Cc1ccncc1-c1cc2c(N[C@@H]3CC[C@](C)(N)C3(C)C)c(C(N)=O)cnn2c1	6.74	6.85	–	–	7.01	120	4.74	–	–	–	–
CC1(C)[C@H](Nc2c(C(N)=O)cnn3cc(-c4ccc(Cl)cc4)cc23)CC[C@]1(C)N	8.00	7.82	9.05	9.10	–	–	–	–	–	–	–
CC1(C)[C@H](Nc2c(C(N)=O)cnn3cc(-c4cc[nH]n4)cc23)CC[C@]1(C)N	7.85	7.68	8.77	8.80	7.09	–	–	0.51	83%	< 250 nM	6.5 ×10⁻⁶ cm/s
CC1(C)[C@H](Nc2c(C(N)=O)cnn3cc(-c4ccncc4F)cc23)CC[C@]1(C)N	7.34	7.15	8.44	8.34	6.92	150	< 4.10	0.22	68%	< 250 nM	2.3 ×10⁻⁶ cm/s
